Test results from patent US20150225380A1, “Novel Method to Obtain Olmesartan Medoxomil With Reduced Particle Size” (LUPIN LIMITED, priority 2012, published 2015).

Key:
[1] = Particle size distribution, Malvern Hydro2000S (A); format: physicochemical; details: crystals of Example 1, seeded crystallisation from acetone, no milling
Experimental: The particle size distribution of olmesartan medoxomil (I) is measured utilizing: Instrument model: Malvern; Dispersion unit: Hydro2000S (A); Particle refraction index of sample: 1.427; Absorption: 0.1; Dispersant refraction index: 1.468 and Size range: 0.020-2000 μm.

[2] = Minimum ignition energy and powder resistivity of the powder; format: physicochemical; details: observed by the present inventors; process safety for milling

With `CCCc1nc(C(C)(C)O)c(C(=O)OCc2oc(=O)oc2C)n1Cc1ccc(-c2ccccc2-c2nnn[nH]2)cc1` [olmesartan medoxomil, 4-(1-hydroxy-1-methylethyl)-2-propyl-1-[[2′-(1H-tetrazol-5-yl) [1, 1′-biphenyl]-4-yl]methyl]-1H-imidazole-5-carboxylic acid (5-methyl-2-oxo-1,3-dioxol-4-yl)methyl ester] the “particle size distribution d10” value [1] was 0.984 μm, the “particle size distribution d50” value [1] was 8.484 μm and the “particle size distribution d90” value [1] was 18.756 μm. The minimum ignition energy [2] was “less than 3 mJ” and the powder resistivity [2] was “very high”.
